Patent US20250129104A1, “7H-PYRROLO[2,3-D]PYRIMIDINES AND PREPARATION AND USES THEREOF” (BioSplice Therapeutics, Inc., priority 2021, published 2025)

Key:
[1] = biological target: recombinant DYRK1A kinase (Homo sapiens (Human), UniProt Q13627); test: DYRK1A kinase assay (Ser/Thr 18 peptide Z-lyte FRET assay); type: biochemical; conditions: DYRK1A kinase activity; 15 μM ATP, 1 h room temperature; method text calls the value IC50
How it was run: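 Recombinant human DYRK1A (0.25 μg/mL) with 15 μM ATP and 4 μM Ser/Thr 18 peptide, 1 h at room temperature with compound (11-point, 1:3, 10 μM top, duplicate). Z-lyte development 1 h, then coumarin/fluorescein FRET emission ratio converted to % phosphorylation; IC50 by non-linear regression.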

[2] = system: Tau phosphorylation at Thr212 (pThr212); test: tau phosphorylation assay: phosphoTau (Thr212) AlphaLISA in HEK293T cells transfected with DYRK1A and MAPT; type: cell-based; conditions: HEK-293T; HEK293T cells transfected with human DYRK1A and MAPT; 18-24 h compound treatment; read-out: pTau (Thr212) EC50
How it was run: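 HEK293T cells transiently co-transfected with human untagged DYRK1A and MAPT (441 aa Tau), reseeded, then treated 18-24 h at 37 °C with compounds (10-point 1:3 series, 20 μM to 1.1 nM final, duplicates). Lysates probed by AlphaLISA with HT7 donor and pThr212 acceptor antibodies; EC50 from curve fit of signal.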

SMILES | EC50 [1] | EC50 [2]
CO[C@H]1CC[C@@H](Nc2ncc3c(-c4ccn5nccc5c4)c[nH]c3n2)CC1 [Compound 1143, N-(cis-4-Methoxycyclohexyl)-5-(pyrazolo[1,5-a]pyridin-5-yl)-7H-pyrrolo [2,3-d]pyrimidin-2-amine] | 3.7 nM | 4 nM
c1cc2cc(-c3c[nH]c4nc(NC5CCOCC5)ncc34)ccn2n1 [Compound 1148, 5-(Pyrazolo[1,5-a]pyridin-5-yl)-N-(tetrahydro-2H-pyran-4-yl)-7H-pyrrolo [2,3-d]pyrimidin-2-amine] | 4.2 nM | 11 nM
CC(C)(F)CNc1ncc2c(-c3ccn4ncc(C(=O)N5CCCCC5)c4c3)c[nH]c2n1 [Compound 1214, (5-(2-((2-Fluoro-2-methylpropyl)amino)-7H-pyrrolo[2,3-d]pyrimidin-5-yl)pyrazolo[1,5-a]pyridin-3-yl)(piperidin-1-yl)methanone] | 9.7 nM | 219 nM
CN1CCC(Nc2ncc3c(-c4ccn5ncc(C(=O)N6CCCCC6)c5c4)c[nH]c3n2)CC1 [Compound 1233, (5-(2-((1-Methylpiperidin-4-yl)amino)-7H-pyrrolo[2,3-d]pyrimidin-5-yl)pyrazolo[1,5-a]pyridin-3-yl)(piperidin-1-yl)methanone] | 18.1 nM | 116 nM
O=C(NCC(F)F)c1cnn2ccc(-c3c[nH]c4nc(C5CC5)ncc34)cc12 [Compound 1249, 5-(2-Cyclopropyl-7H-pyrrolo[2,3-d]pyrimidin-5-yl)-N-(2,2-difluoroethyl) pyrazolo[1,5-a]pyridine-3-carboxamide] | 1.6 nM | 27 nM
O=C(NCC(F)F)c1cnn2ccc(-c3c[nH]c4nc(C5CCC5)ncc34)cc12 [Compound 1250, 5-(2-Cyclobutyl-7H-pyrrolo[2,3-d]pyrimidin-5-yl)-N-(2,2-difluoroethyl) pyrazolo[1,5-a]pyridine-3-carboxamide] | 14.6 nM | 141 nM
CC(C)(F)CNC(=O)c1cnn2ccc(-c3c[nH]c4nc(C5CC5)ncc34)cc12 [Compound 1292, 5-(2-Cyclopropyl-7H-pyrrolo[2,3-d]pyrimidin-5-yl)-N-(2-fluoro-2-methylpropyl)pyrazolo[1,5-a]pyridine-3-carboxamide] | 2.3 nM | 54 nM
C[C@@H](NC(=O)c1cnn2ccc(-c3c[nH]c4nc(C5CC5)ncc34)cc12)C(F)(F)F [Compound 1335, (R)-5-(2-Cyclopropyl-7H-pyrrolo[2,3-d]pyrimidin-5-yl)-N-(1,1,1-trifluoropropan-2-yl)pyrazolo[1,5-a]pyridine-3-carboxamide] | 17.7 nM | 236 nM
O=C(NC1CC(F)(F)C1)c1cnn2ccc(-c3c[nH]c4nc(C5CC5)ncc34)cc12 [Compound 1378, 5-(2-Cyclopropyl-7H-pyrrolo[2,3-d]pyrimidin-5-yl)-N-(3,3-difluorocyclobutyl)pyrazolo[1,5-a]pyridine-3-carboxamide] | 2.6 nM | 604 nM
CN1CCC(NC(=O)c2cnn3ccc(-c4c[nH]c5nc(C6CCC6)ncc45)cc23)CC1 [Compound 1509, 5-(2-Cyclobutyl-7H-pyrrolo[2,3-d]pyrimidin-5-yl)-N-(1-methylpiperidin-4-yl)pyrazolo[1,5-a]pyridine-3-carboxamide] | 39.9 nM | 7020 nM
CN1CCC(NC(=O)c2cnn3ccc(-c4c[nH]c5nc(NCC(C)(C)C)ncc45)cc23)CC1 [Compound 1516, N-(1-Methylpiperidin-4-yl)-5-(2-(neopentylamino)-7H-pyrrolo[2,3-d]pyrimidin-5-yl)pyrazolo[1,5-a]pyridine-3-carboxamide] | 5.8 nM | 34 nM
CN1CCC(NC(=O)c2cnn3ccc(-c4c[nH]c5nc(NCC6(F)CCCCC6)ncc45)cc23)CC1 [Compound 1535, 5-(2-(((1-Fluorocyclohexyl)methyl)amino)-7H-pyrrolo[2,3-d]pyrimidin-5-yl)-N-(1-methylpiperidin-4-yl)pyrazolo[1,5-a]pyridine-3-carboxamide] | 1.2 nM | 24 nM
CN1CCC(Nc2ncc3c(-c4ccn5ncc(C(=O)Nc6cccnc6)c5c4)c[nH]c3n2)CC1 [Compound 1624, 5-(2-((1-Methylpiperidin-4-yl)amino)-7H-pyrrolo[2,3-d]pyrimidin-5-yl)-N-(pyridin-3-yl)pyrazolo[1,5-a]pyridine-3-carboxamide] | 3.7 nM | 3910 nM
CC(C)(F)CNc1ncc2c(-c3ccn4nccc4n3)c[nH]c2n1 [Compound 1648, N-(2-Fluoro-2-methylpropyl)-5-(pyrazolo[1,5-a]pyrimidin-5-yl)-7H-pyrrolo [2,3-d]pyrimidin-2-amine] | 3.9 nM | 152 nM
CC1(CNc2ncc3c(-c4ccn5nccc5n4)c[nH]c3n2)CC1 [Compound 1658, N-((1-Methylcyclopropyl)methyl)-5-(pyrazolo[1,5-a]pyrimidin-5-yl)-7H-pyrrolo[2,3-d]pyrimidin-2-amine] | 10.5 nM | 120 nM
FC(F)(F)C1(CNc2ncc3c(-c4ccn5nccc5n4)c[nH]c3n2)CC1 [Compound 1659, 5-(Pyrazolo[1,5-a]pyrimidin-5-yl)-N-((1-(trifluoromethyl)cyclopropyl)methyl)-7H-pyrrolo[2,3-d]pyrimidin-2-amine] | 19.9 nM | 141 nM
FC1(CNc2ncc3c(-c4ccn5nccc5n4)c[nH]c3n2)CCC1 [Compound 1662, N-((1-Fluorocyclobutyl)methyl)-5-(pyrazolo[1,5-a]pyrimidin-5-yl)-7H-pyrrolo[2,3-d]pyrimidin-2-amine] | 13.4 nM | 103 nM
CO[C@H]1CC[C@@H](Nc2ncc3c(-c4ccn5nccc5n4)c[nH]c3n2)CC1 [Compound 1664, N-(cis-4-Methoxycyclohexyl)-5-(pyrazolo[1,5-a]pyrimidin-5-yl)-7H-pyrrolo[2,3-d]pyrimidin-2-amine] | 6 nM | 56 nM
CN1CCN(c2cc(Nc3ncc4c(-c5ccc6c(c5)C(C)(C)CNC6=O)c[nH]c4n3)ccn2)CC1 [Compound 1849, 4,4-Dimethyl-6-(2-((2-(4-methylpiperazin-1-yl)pyridin-4-yl)amino)-7H-pyrrolo[2,3-d]pyrimidin-5-yl)-3,4-dihydroisoquinolin-1(2H)-one] | 2.1 nM | 168 nM
CO[C@H]1CC[C@@H](Nc2ncc3c(-c4ccc5ncccc5c4)c[nH]c3n2)CC1 [Compound 1885, N-(cis-4-Methoxycyclohexyl)-5-(quinolin-6-yl)-7H-pyrrolo[2,3-d]pyrimidin-2-amine] | 9 nM | 2 nM
CN1CCC(Nc2ncc3c(-c4ccc5ncccc5c4)c[nH]c3n2)CC1 [Compound 1888, N-(1-Methylpiperidin-4-yl)-5-(quinolin-6-yl)-7H-pyrrolo[2,3-d]pyrimidin-2-amine] | 3.1 nM | 22 nM
CC(C)(F)CNc1ncc2c(-c3ccc4nccnc4c3)c[nH]c2n1 [Compound 1913, N-(2-Fluoro-2-methylpropyl)-5-(quinoxalin-6-yl)-7H-pyrrolo[2,3-d]pyrimidin-2-amine] | 4.9 nM | 47 nM
FC1(F)CCC(Nc2ncc3c(-c4ccc5nccnc5c4)c[nH]c3n2)CC1 [Compound 1928, N-(4,4-Difluorocyclohexyl)-5-(quinoxalin-6-yl)-7H-pyrrolo[2,3-d]pyrimidin-2-amine] | 3.7 nM | 111 nM
CO[C@H]1CC[C@@H](Nc2ncc3c(-c4ccc5nccnc5c4)c[nH]c3n2)CC1 [Compound 1929, N-(cis-4-Methoxycyclohexyl)-5-(quinoxalin-6-yl)-7H-pyrrolo[2,3-d]pyrimidin-2-amine] | 5.3 nM | 10 nM
